The values below come from patent US10899773B2 (priority 2014, dated 2021).

A word on the IC50: it is the concentration at which inhibition is half-maximal.

Common to all, as to experiment: cells
What all share (format): cell-based

The subject of one assay is MES SA. The settings on record: Homo sapiens, 72 h, read-out: MES SA IC50 nM.
For another assay, the system named is 293T. The settings on record: Homo sapiens, HEK-293T, 72 h, read-out: 293T IC50 nM.
The next assay concerns MES SA DX. To be noted: Homo sapiens, 72 h, read-out: MES SA DX IC50 nM.

`COc1c2c(c(O)c3c4c(c(C)cc13)C1C3OC5(C(OC)OC)OC15[C@]1(CO1)[C@]3(O)O4)C(=O)[C@@H](O)C[C@@H]2OC1CC(C)(O)C(OC(C)=O)C(C)O1` (stereo partly drawn) [Trox12]: the IC50 with MES SA is 18.1 nM; in the assay with 293T it was 14.9 nM; in the assay with MES SA DX it was over 1000 nM.

Turning to `COc1c2c(c(O)c3c4c(c(C)cc13)C1C3OC5(C(OC)OC)OC15[C@]1(CO1)[C@]3(OC1CC(OC(C)=O)C(O)(C(C)=O)C(C)O1)O4)C(=O)[C@@H](O)C[C@@H]2OC1CC(C)(O)C(OC(C)=O)C(C)O1` (stereo partly drawn) [Trox16], the IC50 in the assay with MES SA was 2.02 nM; in the assay with 293T it was 2.81 nM; in the assay with MES SA DX, over 1000 nM.

Turning to `COc1c2c(c(O)c3c4c(c(C)cc13)C1C3OC5(C(OC)OC)OC15[C@]1(CO1)[C@]3(OC1CC(O)C(O)(C(C)=O)C(C)O1)O4)C(=O)[C@@H](O)C[C@@H]2OC1CC(C)(O)C(O)C(C)O1` (stereo partly drawn) [Trox14], the IC50 in the assay on MES SA was 11.1 nM; in the assay on 293T, 8.02 nM; in the assay with MES SA DX, over 1000 nM.

On to `COc1c2c(c(O)c3c4c(c(C)cc13)C1C3OC5(C(OC)OC)OC15[C@]1(CO1)[C@]3(OC1CC(OC(C)=O)C(O)(C(C)=O)C(C)O1)O4)C(=O)[C@@H](O)C[C@@H]2O` (stereo partly drawn) [Trox15], for which the IC50 with MES SA is 157 nM; in the assay with 293T it was 95.4 nM; in the assay on MES SA DX it was over 1000 nM.

Regarding `COc1c2c(c(O)c3c4c(c(C)cc13)C1C3OC5(C(OC)OC)OC15[C@]1(CO1)[C@]3(OC1CC(O)C(O)(C(C)=O)C(C)O1)O4)C(=O)[C@@H](O)C[C@@H]2OC1CC(C)(O)C(OC(C)=O)C(C)O1` (stereo partly drawn) [Trox13], the results for the IC50 in the assay on MES SA, in the assay on 293T and with MES SA DX were 0.74 nM, 0.702 nM and 204 nM, respectively.
